According to patent US20200253877A1, “GEMCABENE, PHARMACEUTICALLY ACCEPTABLE SALTS THEREOF, COMPOSITIONS THEREOF AND METHODS OF USE THEREFOR” (NEUROBO PHARMACEUTICALS, INC., priority 2018, published 2020):

System: patients with hypercholesterolemia on stable statin therapy
Assay: 12-week placebo-controlled study of 600 mg QD in hypercholesterolemia patients on moderate and high-intensity statins: atherogenic and inflammatory biomarkers
Assay type: in vivo, human
Method: High-risk patients including some, but not all those with heterozygous familial hypercholesterolemia (HeFH) or atherosclerotic cardiovascular disease (ASCVD) on appropriate diet and stable statin therapy for at least 12 weeks and LDL-C ≥100 mg/dL (2.59 mmol/L) and triglycerides <500 mg/dL (5.65 mmol/L) were randomized into a 12-week, placebo-controlled, parallel-group, double-blind study to assess the efficacy of gemcabene calcium salt hydrate Crystal Form 1 (PSD90=52 μm) 600 mg (300-mg film-coated Tablet D×2) QD on LDL-C and other lipoproteins and hsCRP (high-sensitivity C-reactive protein). Safety and tolerability were also evaluated. The patients were stratified by high- or moderate-intensity statin therapy, with or without ezetimibe, with a target of 52 patients (26 patients on 600 mg gemcabene calcium salt hydrate Crystal Form 1 as administered by 2×film-coated Tablet D and 26 patients on placebo (“placebo”)) in each stratum. […] Mean baseline LDL-C for all patients was approximately 134 mg/dL (3.48 mmol/L) with most patients in the high-intensity statin stratum on atorvastatin and most patients in the moderate-intensity stratum on either simvastatin or atorvastatin.
The aim of this study was to characterize gemcabene calcium salt hydrate Crystal Form 1's safety and tolerability and to determine gemcabene calcium salt hydrate Crystal Form 1's additive impact to statins on serum biomarker including atherogenic biomarkers (LDL-C, non-HDL-C, ApoB, ApoE, and triglyceride (TG)) and inflammatory biomarkers (hsCRP, serum amyloid A (SAA)).
Fifty patients (24 patients on 600 mg (Tablet D×2); 26 placebo) on baseline high-intensity (HI) statins received atorvastatin 40 mg or 80 mg QD; or rosuvastatin 20 mg or 40 mg QD. Fifty-five patients (29 patients on 600 mg GEM; 26 placebo) on baseline moderate-intensity (MI) statins received atorvastatin 10 mg or 20 mg QD; rosuvastatin 5 mg or 10 mg QD; or simvastatin 20 or 40 mg QD. Baseline LDL-C was 127 mg/dL and 134 mg/dL in the MI statin and HI statin stratum, respectively.
Within the study population, an analysis was performed in a subpopulation of patients having mixed dyslipidemia (LDL-C ≥100 mg/dL and triglycerides ≥200 and <500 mg/dL). Eighteen patients (10 (film-coated Tablet D×2) patients and 8 placebo patients) having a baseline mean LDL-C level of 142 mg/dL, baseline mean triglyceride level of 247 mg/dL and BMI of 34 kg/m^2 were analyzed (FIG. 48). Although not measured in the subpopulation of this Example, some cardiometabolic patients could have elevated sulphatase-2 (Sulf-2) levels, which are believed to cause reduced Syndecan-1 (also known as “remnant receptor”)-mediated clearance of atherogenic remnant lipoproteins. Without being bound by theory, the data shown in FIG. 48 support the inventors' belief that administration of film-coated Tablet D, which comprises a compound of the invention, rescues remnant receptor activity.

[1] = patients with mixed dyslipidemia, 600 mg QD on statins (FIG. 48)

## CC(C)(CCCCOCCCCC(C)(C)C(=O)O)C(=O)O.[Ca] [6-(5-Carboxy-5-methyl-hexyloxy)-2,2-dimethylhexanoic acid calcium]
Hypercholesterolemia patients on MI and HI statins, 600 mg QD, 12 weeks
  atherogenic and inflammatory markers: significant reductions
[1]
  reduction in ApoB: 26%
  reduction in ApoE: 34%
  reduction in LDL-C: 23%
  reduction in TG: 33%
  reduction in non-HDL-C: 19%
